Experimental data: PubChem BioAssay (NCI)
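How tested: cells in 96-well plates exposed to compound for 48 hours at five concentrations. Definition used: TGI = concentration required for complete inhibition of growth.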

What was measured:
Experiment in all cases: NCI-60 cell line screen, 48 h
A498 renal = system: A498 renal
ACHN renal = system: ACHN renal
CAKI-1 renal = system: CAKI-1 renal
CCRF-CEM leukemia = system: CCRF-CEM leukemia
DU-145 prostate = system: DU-145 prostate
EKVX NSCLC = system: EKVX NSCLC
HL-60(TB) leukemia = system: HL-60(TB) leukemia
HT29 colon = system: HT29 colon
K-562 leukemia = system: K-562 leukemia
KM12 colon = system: KM12 colon
MALME-3M melanoma = system: MALME-3M melanoma
MCF7 breast = system: MCF7 breast
MDA-MB-231 breast = system: MDA-MB-231 breast
MDA-MB-435 = system: MDA-MB-435
MDA-N = system: MDA-N
MOLT-4 leukemia = system: MOLT-4 leukemia
NCI-H522 lung = system: NCI-H522 lung
OVCAR-3 ovarian = system: OVCAR-3 ovarian
OVCAR-4 ovarian = system: OVCAR-4 ovarian
OVCAR-5 ovarian = system: OVCAR-5 ovarian
PC-3 prostate = system: PC-3 prostate
RPMI-8226 leukemia = system: RPMI-8226 leukemia
RXF 393 renal = system: RXF 393 renal
SK-MEL-2 melanoma = system: SK-MEL-2 melanoma
SK-MEL-28 melanoma = system: SK-MEL-28 melanoma
SK-MEL-5 melanoma = system: SK-MEL-5 melanoma
SR leukemia = system: SR leukemia
SW-620 colon = system: SW-620 colon
U251 CNS = system: U251 CNS
UACC-257 melanoma = system: UACC-257 melanoma

CC1(C)[C@@H]2CC[C@@]1(C)[C@@H]1O[C@@H](O[C@@H](CN)c3cc(Cl)c(OCc4ccccc4)c(OCc4ccccc4)c3)C[C@H]21
TGI (A498 renal): 344 nM | TGI (ACHN renal): 306 nM | TGI (CAKI-1 renal): 301 nM | TGI (CCRF-CEM leukemia): 364 nM | TGI (DU-145 prostate): 332 nM | TGI (EKVX NSCLC): 301 nM | TGI (HL-60(TB) leukemia): 373 nM | TGI (HT29 colon): 284 nM | TGI (K-562 leukemia): 478 nM | TGI (KM12 colon): 305 nM | TGI (MALME-3M melanoma): 342 nM | TGI (MCF7 breast): 262 nM | TGI (MDA-MB-231 breast): 288 nM | TGI (MDA-MB-435): 297 nM | TGI (MDA-N): 284 nM | TGI (MOLT-4 leukemia): 341 nM | TGI (NCI-H522 lung): 357 nM | TGI (OVCAR-3 ovarian): 306 nM | TGI (OVCAR-4 ovarian): 298 nM | TGI (OVCAR-5 ovarian): 302 nM | TGI (PC-3 prostate): 292 nM | TGI (RPMI-8226 leukemia): 225 nM | TGI (RXF 393 renal): 288 nM | TGI (SK-MEL-2 melanoma): 311 nM | TGI (SK-MEL-28 melanoma): 384 nM | TGI (SK-MEL-5 melanoma): 324 nM | TGI (SR leukemia): 222 nM | TGI (SW-620 colon): 430 nM | TGI (U251 CNS): 293 nM | TGI (UACC-257 melanoma): 322 nM
